The test system of series [1] is acetylcholine release, human neuroblastoma cell line differentiated to cholinergic neuronal phenotype. As to the kind of experiment: Inhibition of KCl-induced acetylcholine release in a neuroblastoma cell line (Amplex Red). In kind it is cell-based. The settings on record: 50 mM KCl. The procedure:
To determine the compound of the invention effects on acetylcholine release, a human neuroblastoma cell line (50.000 cells/well) was used. Cells were differentiated to cholinergic neuronal phenotype for 4 days. Then, cells were pre-incubated for 60 minutes with the compounds (between 0.1 and 100 μM) as acetyl- or palmitoyl-form and conjugated with trifluoroacetate (TFA) or acetate salt. Afterwards, acetylcholine release was induced by membrane depolarization evoked by 15 minutes incubation with 50 mM KCl. Acetylcholine level in supernatants was quantified by using Amplex® Red Acetylcholine Assay Kit (Thermofisher) following manufacturer's instructions. […] Fluorescence (Ex 530 nm/Em 590 nm) was measured in FluorStar equipment. Acetylcholine content was normalized to the total protein content using BCA assay (Pierce) following manufacturer's instructions. Fluorescence measurements were normalized to the maximum signal detected with KCl stimulation in vehicle treated cells. Vesicle exocytosis disruption by the compounds of the invention lead to a decrease of acetylcholine release (Table E).

Series [2] relates to pilocarpine-induced sweating, C57BL6/Rcc male mice. Kind of series: Antiperspirant effect, chronic administration, pilocarpine-induced sweating mouse model. In kind it is in vivo. The settings on record: during 4 weeks treatment, 100 μg/paw. The procedure: This example evaluated chronic effects of peptide of invention SEQ ID NO: 1 pamitoylated form, in an in vivo sweating model. This model was established using pilocarpine, a non-selective agonist of muscarinic receptors, in 11-weeks old C57BL6/Rcc male mice. Test compound was locally administered three times per week for 4 weeks (Treatment). Sweat was induced by intraplantar (i.pl) injection of pilocarpine (3 μg/paw) in the right hind paw (Sweating) once on weeks 1, 2 and 4 according to table H.
Test compound was injected i.pl. on the right hind paw (1, 10 and 100 μg), and vehicle was saline solution.
Sweating was monitored through amylase activity detection on skin surface using iodine/starch reaction. Dark sweating drops were quantified after 5 minutes induction counting number of drops per paw in each condition. Sample n=5-6 individuals per group. Data are expressed as mean #standard error of the mean (SEM). Raw data was normalized as percentage respect to non-injected stimulated individuals (control, 100%). Statistical analysis was one-way ANOVA followed by Dunnett's post-hoc multiple comparison test comparing each condition with the corresponding control group, ****p<0.0001 ***p<0.001 **p<0.01, *p<0.05

For series [3], the system named is TRPV1-mediated excitability of sensory neurons (neonatal rat dorsal root ganglia). As to the kind of experiment: In vitro functional assay for neuronal sensitization (microelectrode array, capsaicin pulses). In kind it is cell-based, Wistar rats. The conditions noted are these: for % Sensitization inhibition: incubated 1 hour, 100 - ratio P3/P1. The procedure:
Isolated neonatal rat dorsal root ganglia from Wistar rats (3-5 days-old) were seeded microelectrode array chips in DMEM Glutamax, 10% FBS, 1% P/S supplemented with murine NGF. All experiments were performed after 48 h cell seeding.
Sensory neurons were sensitized by acute exposure to pro-inflammatory cocktail with bradykinin, histamine and ATP. TRPV1-mediated excitability was analyzed as stinging, burning and itching sensations are mainly driven by TRPV1. Repetitive application of TRPV1-agonist capsaicin (15 s-application 500 nM) allowed first activation (P1) followed by desensitization (second application). Desensitized cultures were sensitized with the cocktail to recover excitability, using external solution between the second (P2) and the third (P3) capsaicin pulse (8 min). To confirm cell viability 40 mM KCl was applied at the end. Test compound was incubated 1 hour before monitoring at 0.1, 1 and 10 µM. Test compound is the peptide having the following sequence (SEQ ID NO: 1): Palm-HYWRELQYR-NH2
Sensitization was calculated as ratio between P3 and P1 capsaicin pulse (ratio P3/P1), representing sensitized response induced by the pro-inflammatory cocktail. Inhibition percentage was calculated as 100-Sensitization. Data are expressed as mean±standard error of the mean (SEM), Statistical analysis was one-way ANOVA followed by Dunnett's post-hoc multiple comparison test comparing each condition with the corresponding sensitization control group, ****p<0.0001 ***p<0.001 **p<0.01, *p<0.05

The subject of series [4] is pilocarpine-induced sweating, C57BL6/Rcc male mice. The conditions noted are these: acute, at 10, 30 and 100 μg.
Protocol: Test compound was injected intraplantar (i.pl.) on the right hind paw (10, 30 and 100 μg) 30 min before sweating stimulation. Vehicle was saline solution.
Sweating was monitored through amylase activity detection on skin surface using iodine/starch reaction. Dark sweating drops were quantified after 5 minutes induction counting number of drops per paw in each condition. Sample n=5-6 individuals per group. Data are expressed as mean±standard error of the mean (SEM). Raw data was normalized as percentage respect to non-injected stimulated individuals (Control, 100%) and saline-injected non-stimulated individuals (Vehicle, 0%). Statistical analysis was one-way ANOVA followed by Dunnett's post-hoc multiple comparison test comparing each condition with the corresponding control group, ****p<0.0001 ***p<0.001 **p<0.01, *p<0.05
The test system of series [5] is CGRP induced-release on peptidergic sensory neurons (dorsal root ganglia). Kind of series: Inhibition of capsaicin-induced CGRP release on cultured sensory neurons (CGRP EIA). In kind it is cell-based. The settings on record: 1 hour, 1 μM capsaicin 10 min. As for the experimental part: The induction of the release of calcitonin-gene related peptide (CGRP) with capsaicin enables direct measurement of neuronal exocytosis (Meng J. et al., J. Cell. Sci. (2007) 15; 120(Pt 16):2864-74, and Meng J. et al., Mol. Neurobiol. (2014); 50(2):574-88).
The tested peptides were evaluated by measuring their capability of inhibiting CGRP induced-release on peptidergic sensory neurons. Dorsal root ganglia were seeded (50.000 cells/well) in a 96-well plate previously coated with poly-L-lysine and laminin. After 48 hours seeding, cells were incubated with Hank's Balanced salt solution containing peptides of invention at 20, 50 or 100 μM for 1 hour. Next, cells were stimulated for 10 min with 1 μM capsaicin at 37° C. Then, CGRP content was determined in supernatants using colorimetric based CGRP EIA (Spi-Bio Inc) following manufacturer's instructions. Absorbance measurements (405 nm) were standardized with regard to the maximum signal detected with capsaicin stimulation in vehicle treated cells. Inhibition values of CGRP release were calculated as percentages by considering maximum signal to capsaicin-induced release and minimum as non-stimulated cells. Table D details inhibition values of […] obtained for the peptides of invention.

For series [6], the system named is human epidermal keratinocytes (HEKa). Kind of series: MTT cell viability assay on epidermal keratinocytes. In kind it is cell-based. The conditions noted are these: for % inhibition cell viability: HEKa, 24 hours; for effect on cell viability (in words): human epidermal keratinocytes, up to 200 μM. As for the experimental part: (§1) This example evaluated effects of the peptides of invention on human epidermal keratinocytes and dermal fibroblasts. Cell viability was determined with the 3-(4,5-dimethyl-2-thiazolyl)-2,5-diphenyl-2H-tetrazolium bromide (MTT) assay. The MTT assay is a colorimetric reaction based on the capacity of the mitochondrial dehydrogenase enzyme to break and transform the tetrazolium rings of MTT. Epidermal keratinocytes (HEKa) were seeded in a previously coated 96 well-plate at 50-60% confluence in 100 μL of supplemented corresponding medium. Dermal fibroblasts (HDFa) were seeded in a 96 well-plate at 70% confluence in 100 μL supplemented medium. For both cell lines, 24 hours after seeding, medium was replaced by fresh supplemented medium containing peptides dissolved at concentration range between 0.1 and 200 μM. All test substances were incubated for 24 hours at 37° C. and 5% CO2. Afterwards, medium was replaced by 0.5 mg/ml of MTT solution for 4 hours in complete medium. Then, medium was carefully removed and 150 μL/well of DMSO were added to solubilize formazan crystals. Plate was protected from light, shaken for 60 seconds and optical density was measured at 570 nm with a reference filter of 620 nm. Table F details effects of peptides of invention on keratinocytes and fibroblasts cell viability expressed as percentage of inhibition.
Background: Tetrazolium assays rely on reduction of a dye to a coloured formazan, in cell work by metabolically active cells.

For series [7], the system named is human dermal fibroblasts (HDFa). As to the kind of experiment: MTT cell viability assay on dermal fibroblasts. In kind it is cell-based. The conditions noted are these: for % inhibition cell viability: HDFa, 24 hours; for effect on cell viability (in words): dermal fibroblast, up to 200 μM. As for the experimental part: as §1

Like-named read-outs stand apart in the source and are kept apart here. Residues, ends and D or L forms follow the SMILES beside them. *: point of attachment. Palmitoyl = CCCCCCCCCCCCCCCC(=O)*

On to `CCCCCCCCCCCCCCCC(=O)N[C@@H](Cc1c[nH]cn1)C(=O)N[C@@H](Cc1ccc(O)cc1)C(=O)N[C@@H](Cc1c[nH]c2ccccc12)C(=O)N[C@@H](CCCNC(=N)N)C(=O)N[C@@H](CCC(=O)O)C(=O)N[C@@H](CC(C)C)C(=O)N[C@@H](CCC(N)=O)C(=O)N[C@@H](Cc1ccc(O)cc1)C(=O)N[C@@H](CCCNC(=N)N)C(N)=O` [SEQ ID NO: 1 palmitoyl, Palm-HYWRELQYR-NH2] (Palmitoyl-HYWRELQYR-NH2), for which the “% Ach release inhibition” value in series [1] (Acetate salt, 0.1 μM) amounted to 42.9%; in series [1] (Acetate salt, 1 μM), 81.3%; in series [1] (Acetate salt, 10 μM), 87.5%; in series [1] (TFA salt, 5 μM), 7.9%; in series [1] (TFA salt, 10 μM) it was 49.4%; in series [1] (TFA salt, 50 μM), 75.9%. The “effect on sweating (in words)” value in series [2] is “significant sweating inhibition”; in series [4], “significantly reduced sweating”. Besides, the “% Sensitization inhibition” value came to 69.7% in series [3] (0.1 μM), 51.2% in series [3] (1 μM) and 59.7% in series [3] (10 μM). For the same compound, the “effect on sensitization process (in words)” value in series [3] (at the three concentration (0.1, 1 and 10 µM)) is “significantly inhibited sensitization process with similar efficacy”.

On to “Ac-HYWRELQYR-NH2 [SEQ ID NO: 1 acetyl, HYWRELQYR]”, for which the “% CGRP release inhibition” value is 10.1% in series [5] (peptide 20 μM) and 39.1% in series [5] (peptide 100 μM). The “% Ach release inhibition” value in series [1] (Acetate salt, 1 μM) is recorded as 27.9%; in series [1] (Acetate salt, 10 μM), 55.9%; in series [1] (TFA salt, 10 μM) it was 87.9%; in series [1] (TFA salt, 50 μM) it was 33.6%; in series [1] (TFA salt, 100 μM), 65.9%. Moreover, the “% inhibition cell viability” value in series [6] (1 μM) is −1.4%; in series [6] (5 μM), 8.8%; in series [6] (10 μM), 1.7%; in series [6] (50 μM), 7.4%; in series [6] (100 μM) it was 6.2%; in series [6] (200 μM) it was 9.5%. Moreover, the “% inhibition cell viability” value stood at 0.2% in series [7] (1 μM); 9.7% in series [7] (5 μM); 33% in series [7] (10 μM); 3.9% in series [7] (50 μM); 6.8% in series [7] (100 μM); 2.9% in series [7] (200 μM). Further, the “effect on cell viability (in words)” value in series [6] and in series [7] was “did not modify cell viability” each time.

With “Ac-LRVQMVNMFL-NH2 [SEQ ID NO: 4 acetyl, LRVQMVNMFL]”, the “% CGRP release inhibition” value was determined as 14.2% in series [5] (peptide 20 μM) and 77.4% in series [5] (peptide 100 μM). For the same compound, the “% Ach release inhibition” value is listed as “around 40%” in series [1] (Acetate salt, 0.1 μM); 84.3% in series [1] (TFA salt, 10 μM); 58.9% in series [1] (TFA salt, 50 μM); 6.8% in series [1] (TFA salt, 100 μM). Further, the “% inhibition cell viability” value in series [6] (1 μM) is recorded as 13.6%; in series [6] (5 μM), 2.6%; in series [6] (10 μM), 6.0%; in series [6] (50 μM), 19.5%; in series [6] (100 μM), 31.6%; in series [6] (200 μM) it was 41.1%. In addition, the “% inhibition cell viability” value in series [7] (1 μM) is listed as 14.5%; in series [7] (5 μM), 28.4%; in series [7] (10 μM), 37.1%; in series [7] (50 μM) it was 40.6%; in series [7] (100 μM), 41.5%; in series [7] (200 μM), 22.9%. Moreover, the “effect on keratinocyte viability (in words)” value in series [6] (assessed below 50 μM) is “did not modify keratinocyte viability”.

“Ac-MQVWLRMWIDYRAT-NH2 [SEQ ID NO: 2 acetyl, MQVWLRMWIDYRAT]”: the “% CGRP release inhibition” value in series [5] (peptide 20 μM) is recorded as 49.3%; in series [5] (peptide 100 μM), 55.3%. Also, the “% Ach release inhibition” value was found to be 41.0% in series [1] (Acetate salt, 1 μM); 55.8% in series [1] (Acetate salt, 10 μM); 76.2% in series [1] (TFA salt, 5 μM); 78.8% in series [1] (TFA salt, 10 μM); 10.9% in series [1] (TFA salt, 20 μM). Also, the “% inhibition cell viability” value in series [6] (1 μM) was −1.2%; in series [6] (5 μM) it was −1.8%; in series [6] (10 μM), −0.5%; in series [6] (50 μM), −4.6%; in series [6] (100 μM), −0.7%; in series [6] (200 μM) it was 1.2%. Moreover, the “% inhibition cell viability” value is listed as 10.1% in series [7] (1 μM); 12.3% in series [7] (5 μM); 8.5% in series [7] (10 μM); 1.4% in series [7] (50 μM); 7.8% in series [7] (100 μM); 24.6% in series [7] (200 μM). Further, the “effect on cell viability (in words)” value in series [6] and in series [7] was “did not modify cell viability” each time.
